Converted amounts (≈) assume the structure as drawn.
Tested on: KB
Experiment: Cytotoxicity against human KB cells
Format: functional, cell-based

In the case of `CC(C)=CCOc1cc(O)c2c(c1CC=C(C)C)OC(c1ccc(O)cc1O)CC2=O` (stereo not given) [SOPHORAFLAVANONE L], the IC50 is reported as 7.1 µg/mL (≈ 16.7 µM).
`C=C(C)C(CC=C(C)C)Cc1c(O)cc(OC)c(C(=O)C(=O)c2ccc(O)cc2O)c1O` (stereo not given) [SOPHORADIONE] was tested, and the IC50 was 29.4 µg/mL (≈ 66.7 µM).
Work on `CC(C)=CCc1cc(-c2cc3cc4c(cc3o2)OCO4)c(O)cc1O` yielded an IC50 of 8 µg/mL (≈ 23.6 µM).
`COc1cc2c(c(O)c1C(=O)/C=C/c1ccc(O)cc1O)CC(CC=C(C)C)C(C)(C)O2` (stereo not given) [CYCLOKURARIDIN] showed an IC50 of 15.1 µg/mL (≈ 34.4 µM).
With `C=C(C)C(CC=C(C)C)Cc1c(O)cc(O)c2c(=O)c(O)c(-c3ccc(O)cc3)oc12` (stereo not given) the IC50 was 24.3 µg/mL (≈ 57.5 µM).
